Results taken from ChEMBL document CHEMBL1146889, “Homo-cysteinyl peptide inhibitors of the L1 metallo-beta-lactamase, and SAR as determined by combinatorial library synthesis” (Bioorg Med Chem Lett, 2006).

Assays:
[1] = target: Beta-lactamase L1 (Stenotrophomonas maltophilia) (UniProt P52700); assay: Inhibition of Stenotrophomonas maltophilia L1 metallo beta lactamase at 200 uM
Beta-lactamase L1 = Beta-lactamase L1 (Stenotrophomonas maltophilia, UniProt P52700); assay: Inhibition of Stenotrophomonas maltophilia L1 metallo beta lactamase
Chain of Beta-lactamase L1 (P52700 whole entry): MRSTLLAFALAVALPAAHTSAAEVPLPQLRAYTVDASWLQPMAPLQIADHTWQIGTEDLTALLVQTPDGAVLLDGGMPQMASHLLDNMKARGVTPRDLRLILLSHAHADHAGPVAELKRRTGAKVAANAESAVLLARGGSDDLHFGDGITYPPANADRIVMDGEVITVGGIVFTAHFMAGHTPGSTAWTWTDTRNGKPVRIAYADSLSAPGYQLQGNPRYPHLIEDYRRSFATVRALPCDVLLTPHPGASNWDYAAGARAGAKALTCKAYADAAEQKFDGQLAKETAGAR

Chain of Beta-lactamase L1 (Stenotrophomonas maltophilia) (P52700 34-290 limits assumed): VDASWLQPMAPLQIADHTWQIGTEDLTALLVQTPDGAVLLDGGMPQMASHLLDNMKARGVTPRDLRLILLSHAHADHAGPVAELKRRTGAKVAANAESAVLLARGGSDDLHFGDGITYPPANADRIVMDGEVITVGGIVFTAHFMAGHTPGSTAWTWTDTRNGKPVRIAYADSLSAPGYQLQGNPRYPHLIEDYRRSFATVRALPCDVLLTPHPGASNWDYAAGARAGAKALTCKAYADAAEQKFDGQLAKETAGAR

Row | Compound | inhibition [1] [%] | Ki (Beta-lactamase L1) [nM]
1 | O=C(Cc1ccc(Br)cc1)NC(CCS)C(=O)N[C@H](Cc1ccccc1)C(=O)O (stereo partly specified) | 81 | 350
2 | O=C(Cc1cc([N+](=O)[O-])ccc1Cl)NC(CCS)C(=O)N[C@H](Cc1ccccc1)C(=O)O (stereo partly specified) | 81 | 780
3 | Cc1cc(C(=O)NC(CCS)C(=O)N[C@H](Cc2ccccc2)C(=O)O)cc(C)c1O (stereo partly specified) | 81 | 540
4 | O=C(NC(CCS)C(=O)N[C@H](Cc1ccccc1)C(=O)O)c1cc2ccccc2[nH]1 (stereo partly specified) | 81 | 290
5 | C[Si](C)(C)CCC(=O)NC(CCS)C(=O)N[C@H](Cc1ccccc1)C(=O)O (stereo partly specified) | 81 | 520
6 | O=C(NC(CCS)C(=O)N[C@H](Cc1ccccc1)C(=O)O)c1ccc(-c2ccccc2[N+](=O)[O-])o1 (stereo partly specified) | 81 | 160
7 | O=C(NC(CCS)C(=O)N[C@H](Cc1ccccc1)C(=O)O)c1cc2cc(F)ccc2[nH]1 (stereo partly specified) | 81 | 12
8 | Cc1cc(C(=O)NC(CCS)C(=O)N[C@H](Cc2ccccc2)C(=O)O)cc(C)c1OCc1ccccc1 (stereo partly specified) | 81 | 200
